The subject of one assay is TSLP. The experiment in a line: TNF-α-induced TSLP in HaCaT cells (ELISA). It counts as cell-based, human. How it is done: Human keratinocyte HaCaT cells (obtained from the Korean Cell Line Bank) were seeded in a 12-well plate at an initial density of 2×10^5 cells/well and cultured at 37° C. for 16 to 24 hours. FK506 (Sigma), compounds 27 and 29 of the present invention were then added to the HaCaT cell culture medium at final concentrations of 0, 1, 2, 4, and 8 µg/mL, and the cells were cultured at 37° C. for 1 hour. Next, to induce TSLP, the culture medium was treated with TNF-α (Sigma-Aldrich, USA) to a final concentration of 100 ng/mL, and the cells were cultured for an additional 24 hours at 37° C. The culture supernatant was collected, and the amount of induced TSLP from HaCaT cells was determined using an ELISA kit (R&D Systems, USA) according to the manufacturer's instructions. […] Under the same conditions, to compare the TSLP reduction efficiency R.R. (Reduction rate) of compound 27, positive control compound and compound 29, equal amounts of compounds 27, 29 and FK506 (Sigma-Aldrich, USA) were pretreated for 1 hour. The amount of TSLP released into the culture supernatant from HaCaT cells stimulated by TNF-α was quantitatively analyzed and presented in Table 3 and FIG. 3 (c).
(ELISA stands for enzyme-linked immunosorbent assay.)

The subject of assay [1] is DNCB-induced atopic dermatitis mice. The experiment in a line: DNCB-induced atopic dermatitis mouse model. Format: in vivo, ICR mice. The note with it: vs DNCB-treated group. How it is done:
ICR mice (Orient Bio Inc., male, 4 weeks old) were used, with four mice per group. The mice were acclimatized for one week under controlled conditions (23±2° C., humidity 55±10%, 12-hour light/dark cycle, animal facility at Sungkyunkwan University) and were shaved using clippers and depilatory cream before drug treatment. Following the conventional method, 1% DNCB (2,4-dinitrochlorobenzene, Sigma-Aldrich Co., St. Louis, USA) (200 l) was applied to the dorsal area of the mice every 2 days, four times a week for one week. Subsequently, 0.5% DNCB (200 l) was applied again at 2-day intervals, eight times, to induce atopic dermatitis (Ara, J., Mol Cell Toxicol 2019). One week after DNCB treatment, signs of lesions were confirmed in all mice. Then, the mice were topically administered with the compound 27 of the present invention, dissolved in sterile water at a concentration of 1% (w/v), starting from the point of 0.5% DNCB application, once daily for two weeks. The experimental animals were supplied with powdered feed (Purina, Switzerland), and water and feed were freely available throughout the experimental period. Symptoms associated with atopic dermatitis, such as erythema, edema, scaling, crusting, lichenification, inflammation, bleeding and skin dryness, were observed and recorded according to the Scoring Atopic Dermatitis (SCORAD) index in Table 2.
Using the Mosquito Blood Collection System, blood was drawn from the retro-orbital plexus, and serum was separated. Skin tissue proteins were extracted using a homogenizer in 0.2% PBS (phosphate buffer saline). To measure the concentration of IgE, an IgE ELISA kit (Shibayagi, Japan) was used following the manufacturer's instructions, and analysis was performed using an ELISA reader. The concentrations of TNF-α, IL-4, CCL22/MDC, MMP-12, and S100A9 were measured using Luminex® Assays (R&D Systems, USA).
Skin tissues from the mouse dorsal area were separated and fixed in 10% formalin (10% Neutral Buffered Formalin, Kang Dong Trading, South Korea) for 72 hours. The fixed tissues were washed with water for about 1 hour and then processed into paraffin blocks. The paraffin blocks were sectioned into 8 m slices using a microtome, followed by staining with Harris's hematoxylin solution. Subsequently, the sections were treated with 1% HCl-alcohol, neutralized with 0.5% ammonia solution, and stained with Eosin solution. Next, dehydration was performed using alcohol and xylene, and the sections were mounted on slides using Canada balsam. FIGS. 7 (a) and (b) represent the results.
To determine the concentrations of IgE and TSLP in mouse serum, IgE ELISA kit (Shibayagi, JP) and TSLP ELISA kit (R&D systems, USA) were used following the manufacturer's instructions. As shown in FIGS. 8 (a) and (b), the serum concentrations of IgE and TSLP increased in the DNCB-treated group.
Proteins were extracted from skin tissues of atopic dermatitis mice on the dorsal area, and the levels of TNF-α, IL-1β, CCL22/MDC, IL-4, MMP-12, and S100A9 were measured using Luminex® Assays (R&D systems, USA).

Assay [2] relates to DNFB-induced atopic dermatitis mice. In words: DNFB-induced atopic dermatitis mouse model, itch scratching test. It counts as in vivo, ICR mice. The conditions noted are these: 1˜10 mg/kg, ip, po or topical, daily for one week, 30 min recording, vs control group. The protocol: ICR mice (Supplier: Koatech, Gyeonggi, South Korea, Male, 9 weeks old) were used. After acclimatization to the environment for one week, the mice were divided into treatment and control groups, and then hair was removed from the area (dorsal area) where the drug was applied on day 0, 0.5% DNFB (50 μL) diluted in 99% acetone, was applied to the dorsal area. Subsequently, on days 5, 8, 10 and 14, additional applications of 0.2% DNFB (20 μL) were applied to induce atopic dermatitis. After 7 days of DNFB treatment, once skin lesions were confirmed in all mice, compound 27 of the present invention was administered daily for one week via intraperitoneal (ip), oral (po), or topical (dermal) routes.
For the groups treated with the compound 27 of the present invention (1˜10 mg/kg) and the control group, mice were separated on days 5, 8, 11 and 15, acclimatized for 1 hour, and their scratching behavior patterns were recorded and analyzed for 30 minutes.

Where [3] appears, read: HaCaT culture supernatant, TNF-α stimulated, 1 h pretreatment, equal amounts of compounds.

The structures appear in SMILES notation.

With `CCC(NC)C(=O)NCc1ccc(OCc2ccc(C(F)(F)F)cc2)cc1` (racemic) [Compound 27, (R)/(S)-2-(methylamino)-N-(4-((4-trifluoromethyl)benzyl)oxy)benzyl)butanamide], the “amount of induced TSLP with increasing concentration” value in the assay with TSLP (HaCaT cells, 0, 1, 2, 4 and 8 µg/mL, TNF-α 100 ng/mL, 24 h) is “decreased”. In addition, in the assay on TSLP (setting [3]), the “R.R (Reduction rate) of TSLP” value was 54% and the TSLP was 234 ng/mL. Moreover, in assay [1] (Luminex), the “CCL22/MDC level in skin tissue” value is reported as “significant decrease”, the “IL-1β level in skin tissue” value is on record as “significant decrease”, the “IL-4 level in skin tissue” value is listed as “significant decrease” and the “MMP-12 level in skin tissue” value was “significant decrease”. In assay [1] (Luminex), the “S100A9 level in skin tissue” value is reported as “significant decrease” and the “TNF-α level in skin tissue” value is reported as “significant decrease”. Moreover, the “symptoms of dermatitis (SCORAD index)” value in assay [1] (topical 1% (w/v), once daily, two weeks) is “significant reduction”. In addition, in assay [1] (topical 1% (w/v)), the “expression of inflammatory cells (H&E, skin tissue)” value is recorded as “significant decrease”; the “serum IgE concentration” value is listed as “decrease”; the “serum TSLP concentration” value is recorded as “decrease”; the “thickness of the epidermal layer” value is listed as “significant reduction”. Further, the scratching frequency result in assay [2] was “significantly decreased”.

These data come from patent publication US20250205195A1, “BENZYLOXY-BENZYLAMINYL AMINO ACID DERIVATIVE FOR ADJUSTING TSLP/TSLPR SIGNAL TRANSMISSION” (AMTIXBIO CO., LTD., priority 2021, published 2025).
